Measurements as given in US20220296599A1, “Pharmaceutical composition comprising histone deacetylase inhibitor and methotrexate” (Chong Kun Dang Pharmaceutical Corp., priority 2018, published 2022).

Assays:
[1] = test system: adjuvant-induced arthritis (AIA) model; assay: Clinical score analysis in adjuvant-induced arthritis (AIA) model; assay type: in vivo, Lewis rats; design: Clinical score 9th day / Clinical score 13th day / Clinical score 16th day / Clinical score 11th day / Clinical score 15th day / Clinical score 18th day: scale not given here; conditions: Table 17 study, compound 10 mg/kg once per day P.O.; for Rate of reduction in clinical scores (%): 18th day vs vehicle; for Clinical score 11th day / Clinical score 15th day / Clinical score 18th day: Mean ± SEM
Method: (§1) Lewis rats (female, five-weeks old) were purchased from Central Lab Animal, Inc. and kept in a controlled environment with a temperature at 22±2° C., a humidity at 44-56% and a light/dark cycle of 12 hours, while being allowed to have a free access to standard diet and water for one week before an examination. Complete Freund's Adjuvant (Chondrex) containing 10 mg/mL of heat killed mycobacteria toxin was fully mixed together, after which […] thereof was taken and subcutaneously injected into each upper tail of the rats to induce arthritis therefrom.
(§2) To administer a drug of compound 374 (SM374) and evaluate an effect thereof, the rats were divided into 11 groups (9, 10 or 11 animals per group) one day before or nine days after inducing arthritis, after which each group was classified according to administered substances (vehicle, compound 374 (SM374) or methotrexate (MTX)) and administration routes (oral administration (P.O.) or intraperitoneal administration (I.P.)) as shown in a following table 13.
(§3) Also, in order to administer a drug of compounds 374, 413, 484, 530 and 652 (SM374, SM413, SM484, SM530 and SM652) and evaluate an effect thereof, the rats were divided into 13 groups (9 or 10 animals per group) eight days after inducing arthritis, and each group was classified according to administered substances (vehicle, SM374, SM413, SM484, SM530, SM652 and MTX) and administration routes (oral or intraperitoneal administration) as shown in a following table 14.
To identify the efficacy of the inventive composition on preventing or treating arthritis in an AIA model, an analysis was made on the clinical scores of rats dosed with a compound 374 (SM 374, once per day) or MTX (once per week or twice per week) from 9th day to 16th day after inducing arthritis.
Particularly, a degree of swelling, erythema, etc., in each joint of the rats were observed, after which clinical scores were calculated according to a scoring system described in a following table 15, such that the clinical scores on four joints were added up to obtain total scores for each rat (Vishwakarma et al., 2013).
To identify the efficacy of the inventive composition on preventing or treating arthritis in an AIA model, an analysis was made on the clinical scores of rats dosed with compounds 374, 413, 484, 530 and 652 (SM374, SM413, SM484, SM530 and SM652, once per day) or MIX (once per week) from 8th day to 18th day after inducing arthritis.

[2] = Analysis of body weights in AIA model; assay type: in vivo, Lewis rats; conditions: Table 19 study; compound 10 mg/kg once per day P.O.
Method: as §1, §2, §3
An analysis was made on the body weight of rats dosed with compound 374 (SM 374, once per day) or MIX (once per week or twice per week) from 9th day to 16th day after inducing AIA. […]

| SMILES | Rate of reduction in clinical scores (%) [1] | Clinical score 11th day [1] | Clinical score 15th day [1] | Clinical score 18th day [1] | Body weight (g) 8th day [2] | Body weight (g) 11th day [2] | Body weight (g) 15th day [2] | Body weight (g) 18th day [2] |
| --- | --- | --- | --- | --- | --- | --- | --- | --- |
| O=C(NO)c1ccc(CN(C(=O)N2CCCOCC2)c2cccc(F)c2)cc1 [SM652, N-(3-fluorophenyl)-N-(4-(hydroxycarbamoyl)benzyl)-1,4-oxazepane-4-carboxamide] | 19.7% | 0.0 ± 0.0 | 1.4 ± 0.9 | 4.9 ± 1.6 | 152.8 ± 2.4 g | 157.6 ± 1.9 g | 158.8 ± 1.6 g | 156.8 ± 3.9 g |
| O=C(NO)c1ccc(CN(C(=O)N2CCOCC2)c2ccc(F)cc2F)cc1 [SM413, N-(2,4-difluorophenyl)-N-(4-(hydroxycarbamoyl)benzyl)morpholine-4-carboxamide] | −3.3% | 0.0 ± 0.0 | 3.0 ± 1.4 | 6.3 ± 1.4 | 151.3 ± 2.9 g | 151.4 ± 3.9 g | 157.4 ± 4.2 g | 155.2 ± 4.5 g |
| COc1cccc(N(Cc2ccc(C(=O)NO)cc2)C(=O)N2CCOCC2)c1 [SM484, N-(4-(hydroxycarbamoyl)benzyl)-N-(3-methoxyphenyl)morpholine-4-carboxamide] | 19.7% | 0.0 ± 0.0 | 2.9 ± 1.3 | 4.9 ± 1.7 | 151.4 ± 2.5 g | 154.7 ± 2.1 g | 160.7 ± 3.3 g | 158.3 ± 4.6 g |
